The text below walks through data of article PMC9513234, “Synthesis and Biological Evaluation of Termini-Modified and Cyclic Variants of the Connexin43 Inhibitor Peptide5” (Frontiers in Chemistry, 2022).

The conditions of series [1]: cited from earlier work.
Series [2] relates to gap junctions in hCMVEC cells. Particulars: 100 µM, mean ± SEM. The protocol:
We next investigated the ability of peptide5 variants to inhibit gap junctional communication using a scrape loading assay. In this assay, the cells in culture are loaded with a dye (Lucifer Yellow dilithium salt (LY), M.W. 457.25 Da) of molecular size (<1 kDa) that is able to transit through the gap junctions and the degree of dye spread is then measured by counting the number of cells that contain LY (Supplementary Material, Method 4) ^1. Consistent with our previous study, peptide5 (1) and Cbx reduced the degree of dye spread following incubation with LY (56.16 ± 2.1%; p < 0.0001 and 16.2 ± 1.1%; p < 0.0001, respectively) compared to the untreated controls (Figure 12).
Human cerebral microvascular endothelial cells (hCMVEC) were purchased from Applied Biological Materials (ABM) Inc, Canada (cat # T0259) (O'Carroll et al., 2015). Cells were cultured in 1 μg/cm^2 collagen I (Gibco) coated T75 flasks from Corning (NY, USA). The growth media was M199 media (Gibco), supplemented with 10% FBS, 1 μg/mL hydrocortisone (Sigma), 3 μg/mL human FGF (Peprotech), 10 μg/mL human EGF (Peprotech), 10 μg/mL heparin (Sigma), 2 mM Glutamax (Gibco), and 80 μM butyryl cAMP (Sigma).
For experiments hCMVECs cells were plated M199 media at a density of 4 x 10^5 cells per well in a collagen coated (1 µg/cm^2) 12-well plate the day prior to the experiment to ensure a confluent monolayer of hCMVECs. On the day of the experiment cells were pre-incubated in carbenoxolone, (100 µM) Peptide5 (5–100 µM) or modified analogues (100 µM) or M199 as a negative control. Cells were washed three times with phosphate buffered saline (PBS) without Ca^2+ or Mg^2+ and incubated in 0.05% Lucifer Yellow (LY) (Sigma), a fluorescent dye that is transferred through coupled gap junction channels (el-Fouly, Trosko, & Chang, 1987), and scrape-wounded with a size 10 carbon steel surgical blade (Swann-Morton, England). Following a 5 minute incubation at 37 °C in 95% O2 and 5% CO2 without light, the 0.05% LY solution was removed. Cells were rinsed four times with HBSS containing Ca^2+ ^+, and then fixed in 4% paraformaldehyde (PFA) in PBS at pH 7.4 for 10 minutes at room temperature. Cells were then washed 3 times in PBS to remove PFA before fluorescent imaging. Fluorescent images were visualized using a Nikon TE2000E inverted fluorescent microscope (10x magnification, 0.3 numerical aperture), and captured using a Digital Sight CCD camera and Eclipse Net software (Nikon). Three images within each well from three independent experiments were taken for analysis, and the total number of cells showing dye uptake from those that had been loaded were counted manually by masked observers. Each peptide was tested in at least an n of 2 separate experiments.

Another series relates to gap junctions. The following applies: cited from earlier work.
A short description of series [3]: Human serum stability assay (RP-HPLC). As to the method:
We then evaluated the N-methylated variants 7 and 8, D amino acid variants 9 and 10, and the two carbo cyclic peptides 39 and 42. Each peptide was incubated with 25% aq. human serum at 37°C, and 6 aliquots were extracted within 48 h. The stability of each peptide upon exposure to human serum was then analyzed via analytical RP HPLC, and the amount of peptide still present at each time point was recorded relative to t = 0 h.
Whole blood was collected from a healthy volunteer and stored in a covered test tube and was allowed to clot by leaving it undisturbed at r.t. for ca. 1 h. The clot was removed by centrifugation at 1,000-2,000 x g for 10 min and the resulting supernatant was designated as the serum. The serum was collected and stored in 0.5 mL aliquots, whereby the samples were stored at - 20 °C.
200 µM concentration of peptide was incubated in 25% aq. human serum (1.7 mL) and left to shake at 37 °C. Aliquots of human serum-peptide mixture (270 µL) were taken at given times (0 h, 1 h, 4 h, 8 h, 24 h, and 48 h) and threefold excess of acetonitrile (810 µL) was added to the aliquot and left for 1 h at 0 °C. The samples underwent centrifugation (14,500 rpm) for 30 min at r.t. and the supernatant was subsequently collected. Upon evaporation of the solvents, the resulting dry, pale-yellow residue was dissolved in water containing 0.1 % TFA.
The dissolved solution was analysed via analytical RP HPLC and the quantity of the peptide was expressed as a percentage relative to the peptide peak area obtained at time zero (i.e. 100% peptide amount at t = 0 h). A scatterplot graph representing percentage of peptide versus time was generated.

The next series concerns hemichannels. Also noted: method as in O’Carroll et al., 2008. Particulars: in vitro; ref O’Carroll et al., 2008; cited from earlier work.
Details of series [4]: method as in Kumagai et al., 1991. Particulars: ref Kumagai et al., 1991; cited from earlier work.

With “H-VDCFLSRPTEKT-OH [peptide5, H2N-VDCFLSRPTEKT-CO2H]”, the “half-life in rat serum” value in series [1] is recorded as 5 min. For the same substance, the “LY dye spread (number of LY-positive cells) as percentage of untreated control” value in series [2] came to 56.16 ± 2.1%. In addition, the “concentration inhibiting both gap junctions and hemichannels” value with gap junctions (in vitro, higher concentrations, ref O’Carroll et al., 2008) is given as 500 µM. In addition, in series [3], the “time to complete degradation in human serum” value was at most 10 h. In addition, the “concentration selectively inhibiting hemichannels” value in the series with hemichannels was at least 5 µM.
Turning to SRPTEKT [a truncated peptide5], the “gap junction inhibition compared with peptide5 (result in words)” value in the series with gap junctions (ref Kim et al., 2017b) is “equally effective as a gap junction inhibitor”.
As for cilengitide, in series [4], the “increase in binding compared to its linear form” value is on record as 10 fold.
